Structures can show the parent of a compound that is named as a salt.
How the values were obtained:
formalin-induced pain = test: formalin test; assay type: in vivo, mice; conditions: mice; for duration of the nociceptive response, acute phase of the formalin test: i.p. 30 min before test, 0–5 min after formalin; for influence on the analgesic effect of E153, late phase of the formalin test: 15 mg/kg given 10 min before E153 (15 mg/kg i.p.); for duration of the nociceptive response, late phase of the formalin test: single administration alone, 15 mg/kg
Experimental: The mice received an intraperitoneal (i.p.) injection of either the test compound or a control solution. After 30 min, a 20 μL injection of a 2.5% formalin solution was administered into the right hind paw. Right after the formalin injection, the animals were individually placed into glass containers and observed for the following 30 min. During specific time intervals (0–5 min, referred to as Phase I, and 15–30 min, referred to as Phase II, post-formalin injection), the time spent by the animals licking or biting the injected paw was recorded..

[1] = system: histamine-induced pruritus; test: histamine-induced pruritus; assay type: in vivo; conditions: mice; for influence on the antipruritic activity of E153, histamine-induced pruritus: 15 mg/kg given 10 min before E153 (5 mg/kg i.p.)
Experimental: (§1) The area (around 2 cm^2) of the nape of mice was shaved at least 2 days prior to experiments. On the day of the experiment, each mouse was individually placed in plastic chambers (15 × 15 × 30 cm). After the 30 min period of habituation, the mice received an intradermal (i.d.) injection of histamine dihydrochloride (10 µmol/site), chloroquine (CQ, 200 µg/site), or SLIGRL-NH2 (40 nmol/site), which were dissolved in physiological saline and administrated at the constant volume of 20 μL. Immediately following the injection, scratching (series of movements considered as a single scratching bout usually consisted of three single scratches) of the injected site by the hind paw was counted for 60 min, 30 min, or 45 min after histamine, CQ, and SLIGRL-NH2 injection, respectively.

CQ-induced pruritus = test: chloroquine (CQ)-induced pruritus; assay type: in vivo, mice; conditions: mice, 10 mg/kg i.p.; 30 min observation
Experimental: as §1

SLIGRL-induced pruritus = test: SLIGRL-induced pruritus; assay type: in vivo; conditions: mice, 10 mg/kg i.p.; 45 min observation
Experimental: as §1

Structure (SMILES) | duration of the nociceptive response, acute phase of the formalin test (formalin-induced pain) | influence on the antipruritic activity of E153, histamine-induced pruritus [1] | scratching behavior, histamine-induced pruritus ([1]; administered alone, 15 mg/kg) | influence on the analgesic effect of E153, late phase of the formalin test (formalin-induced pain) | duration of the nociceptive response, late phase of the formalin test (formalin-induced pain) | further results
c1cc(OCCCN2CCCCC2)ccc1CN1CCCCC1 [JNJ 5207852, 1-[3-[4-(1-piperidinylmethyl)phenoxy]propyl]piperidine hydrochloride] | lack of activity | – | – | – | – | activity in the late phase of the formalin test (formalin-induced pain; 10 mg/kg i.p.): inactive; paw licking and biting behavior, late phase of the formalin test (formalin-induced pain; 15 and 30 mg/kg i.p.): significantly attenuated; nociceptive response, late phase of the formalin test, joint administration (formalin-induced pain; JNJ 5207852 15 mg/kg + S1RA 15 mg/kg i.p., compared to saline): significantly stronger decrease in nociceptive response
C[C@@H](N)Cc1c[nH]cn1 [RAMH, (R)-(-)-α-methylhistamine] | – | had no effect | did not alter animal scratching behavior | antagonized the effects of test compound | did not change | –
Cl.O=C(OCCN1CCOCC1)C1(c2ccccc2)CCCCC1 [PRE-084, 2-[4-morpholinethyl]1-phenylcyclohexanecarboxylate hydrochloride] | – | significant decrease in E153 activity | did not alter animal scratching behavior | antagonized the effects of test compound | did not change | –
COc1ccc(CN(CCN(C)C)c2ccccn2)cc1 [pyrilamine, reference compound] | – | – | – | – | – | scratching behavior, histamine-induced pruritus ([1]; i.p. 30 min before i.d. histamine): significantly reduced scratching behavior; number of scratch bouts, CQ-induced pruritus (CQ-induced pruritus): not effective; scratch bouts, SLIGRL-induced pruritus (SLIGRL-induced pruritus): not effective
Cc1cc(OCCN2CCOCC2)nn1-c1ccc2ccccc2c1.Cl [Compound S1RA, 4-[2-[[5-methyl-1-(2-naphthalenyl)1H-pyraol-3-yl]oxy]ethyl]-morpholine hydro-chloride] | lack of activity | – | – | – | – | activity in the late phase of the formalin test (formalin-induced pain; 15 mg/kg i.p.): inactive; paw licking and biting behavior, late phase of the formalin test (formalin-induced pain; 30 mg/kg i.p.): showed activity; nociceptive response, late phase of the formalin test, joint administration (formalin-induced pain; JNJ 5207852 10 mg/kg + S1RA 30 mg/kg i.p.): did not affect the activity of the compounds
